Experimental findings from publication PMC3448056, “2-Benzamido-N-(1H-benzo[d]imidazol-2-yl)thiazole-4-carboxamide derivatives as potent inhibitors of CK1δ/ε” (Amino Acids, 2012) are described below.

Assay in all cases: KINOMEscan selectivity profiling
Holding throughout (assay type): binding

In one assay the target is T1, CSNK1E (Homo sapiens, UniProt P49674).
T1 construct: purchased Ambit Biosciences Cooperation, San Diego, USA (KINOMEscan)
The settings on record: remaining relative to controls, read-out: %Ctrl @ 10 μM (CSNK1E). The procedure: (§1) KINOMEscan™ was performed to determine binding constants of coumpound 5 to 442 eukaryotic kinases by Ambit Biosciences Cooperation, San Diego, USA.

The next assay deals with T2, FLT3(D835Y) (Homo sapiens, UniProt P36888, D835Y).
T2 construct: purchased Ambit Biosciences Cooperation, San Diego, USA (KINOMEscan)
The settings on record: remaining relative to controls, read-out: %Ctrl @ 10 μM (FLT3(D835Y)). The procedure:
as §1

A further assay addresses T3, CLK1 (Homo sapiens, UniProt P49759).
T3 construct: purchased Ambit Biosciences Cooperation, San Diego, USA (KINOMEscan)
The conditions noted are these: remaining relative to controls, read-out: %Ctrl @ 10 μM (CLK1). The procedure:
as §1

The next assay has as its target T4, DYRK1B (Homo sapiens, UniProt Q9Y463).
T4 construct: purchased Ambit Biosciences Cooperation, San Diego, USA (KINOMEscan)
The settings on record: remaining relative to controls, read-out: %Ctrl @ 10 μM (DYRK1B). The procedure: as §1

In the next assay the target is T5, SLK (Homo sapiens, UniProt Q9H2G2).
T5 construct: purchased Ambit Biosciences Cooperation, San Diego, USA (KINOMEscan)
The settings on record: remaining relative to controls, read-out: %Ctrl @ 10 μM (SLK). The procedure: as §1

The next assay deals with T6, FLT3(D835H) (Homo sapiens, UniProt P36888, D835H).
T6 construct: purchased Ambit Biosciences Cooperation, San Diego, USA (KINOMEscan)
The conditions noted are these: remaining relative to controls, read-out: %Ctrl @ 10 μM (FLT3(D835H)). The procedure:
as §1

The next assay has as its target T7, CSNK1A1 (Homo sapiens, UniProt P48729).
T7 construct: purchased Ambit Biosciences Cooperation, San Diego, USA (KINOMEscan)
The conditions noted are these: remaining relative to controls, read-out: %Ctrl @ 10 μM (CSNK1A1). The procedure:
as §1

The target in another assay is T8, CLK2 (Homo sapiens, UniProt P49760).
T8 construct: purchased Ambit Biosciences Cooperation, San Diego, USA (KINOMEscan)
The settings on record: remaining relative to controls, read-out: %Ctrl @ 10 μM (CLK2). The procedure:
as §1

For a further assay, the target named is T9, CLK4 (Homo sapiens, UniProt Q9HAZ1).
T9 construct: purchased Ambit Biosciences Cooperation, San Diego, USA (KINOMEscan)
The conditions noted are these: remaining relative to controls, read-out: %Ctrl @ 10 μM (CLK4). The procedure:
as §1

The target of the next assay is T10, TAOK3 (Homo sapiens, UniProt Q9H2K8).
T10 construct: purchased Ambit Biosciences Cooperation, San Diego, USA (KINOMEscan service)
The conditions noted are these: remaining relative to controls, read-out: %Ctrl @ 10 μM (TAOK3). The procedure:
as §1

The target in the next assay is T11, DYRK2 (Homo sapiens, UniProt Q92630).
T11 construct: purchased Ambit Biosciences Cooperation, San Diego, USA (KINOMEscan)
The conditions noted are these: remaining relative to controls, read-out: %Ctrl @ 10 μM (DYRK2). The procedure: as §1

The target in the next assay is T12, CLK3 (Homo sapiens, UniProt P49761).
T12 construct: purchased Ambit Biosciences Cooperation, San Diego, USA (KINOMEscan)
The settings on record: remaining relative to controls, read-out: %Ctrl @ 10 μM (CLK3). The procedure:
as §1

A further assay concerns the target T13, CSNK1G3 (Homo sapiens, UniProt Q9Y6M4).
T13 construct: purchased Ambit Biosciences Cooperation, San Diego, USA (KINOMEscan)
The conditions noted are these: remaining relative to controls, read-out: %Ctrl @ 10 μM (CSNK1G3). The procedure: as §1

A further assay has as its target T14, DYRK1A (Homo sapiens, UniProt Q13627).
T14 construct: purchased Ambit Biosciences Cooperation, San Diego, USA (KINOMEscan)
The conditions noted are these: remaining relative to controls, read-out: %Ctrl @ 10 μM (DYRK1A). The procedure: as §1

The next assay has as its target T15, PIP5K2C (Homo sapiens, UniProt Q8TBX8).
T15 construct: purchased Ambit Biosciences Cooperation, San Diego, USA (KINOMEscan)
The conditions noted are these: remaining relative to controls, read-out: %Ctrl @ 10 μM (PIP5K2C). The procedure:
as §1

The next assay concerns the target T16, TAOK1 (Homo sapiens, UniProt Q7L7X3).
T16 construct: purchased Ambit Biosciences Cooperation, San Diego, USA (KINOMEscan service)
The conditions noted are these: remaining relative to controls, read-out: %Ctrl @ 10 μM (TAOK1). The procedure: as §1

The target of the next assay is T17, CSNK1A1L (Homo sapiens, UniProt Q8N752).
T17 construct: purchased Ambit Biosciences Cooperation, San Diego, USA (KINOMEscan)
The conditions noted are these: remaining relative to controls, read-out: %Ctrl @ 10 μM (CSNK1A1L). The procedure: as §1

T4 sequence (Q9Y463 whole entry): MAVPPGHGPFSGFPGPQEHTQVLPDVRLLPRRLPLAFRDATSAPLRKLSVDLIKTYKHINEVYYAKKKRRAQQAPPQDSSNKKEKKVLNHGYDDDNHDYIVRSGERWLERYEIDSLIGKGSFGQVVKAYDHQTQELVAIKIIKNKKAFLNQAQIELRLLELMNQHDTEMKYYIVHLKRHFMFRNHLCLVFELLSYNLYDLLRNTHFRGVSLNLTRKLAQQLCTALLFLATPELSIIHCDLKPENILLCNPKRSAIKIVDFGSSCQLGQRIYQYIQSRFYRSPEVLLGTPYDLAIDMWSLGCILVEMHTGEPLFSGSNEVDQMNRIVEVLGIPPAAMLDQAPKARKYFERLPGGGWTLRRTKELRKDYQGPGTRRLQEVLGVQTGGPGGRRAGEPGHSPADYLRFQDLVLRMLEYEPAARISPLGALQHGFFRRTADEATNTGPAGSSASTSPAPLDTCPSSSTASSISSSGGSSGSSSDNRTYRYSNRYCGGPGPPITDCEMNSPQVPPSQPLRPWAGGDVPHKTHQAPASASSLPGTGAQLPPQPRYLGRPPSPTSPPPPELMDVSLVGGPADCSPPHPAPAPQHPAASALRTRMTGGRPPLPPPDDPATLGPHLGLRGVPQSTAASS
T8 sequence (P49760 whole entry): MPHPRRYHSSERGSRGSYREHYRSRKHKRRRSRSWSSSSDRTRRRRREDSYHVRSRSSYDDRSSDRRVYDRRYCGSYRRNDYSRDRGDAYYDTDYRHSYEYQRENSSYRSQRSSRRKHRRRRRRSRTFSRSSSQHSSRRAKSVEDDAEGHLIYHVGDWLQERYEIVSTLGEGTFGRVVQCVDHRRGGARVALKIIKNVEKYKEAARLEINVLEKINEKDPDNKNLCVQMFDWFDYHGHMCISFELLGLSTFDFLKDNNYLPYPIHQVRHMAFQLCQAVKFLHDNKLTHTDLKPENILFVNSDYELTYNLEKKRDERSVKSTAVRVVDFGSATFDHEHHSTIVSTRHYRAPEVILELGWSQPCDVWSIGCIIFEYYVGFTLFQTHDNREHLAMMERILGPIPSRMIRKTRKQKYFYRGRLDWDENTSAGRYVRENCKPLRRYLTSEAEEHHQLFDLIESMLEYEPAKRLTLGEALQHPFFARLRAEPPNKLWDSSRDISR
T11 sequence (Q92630 whole entry): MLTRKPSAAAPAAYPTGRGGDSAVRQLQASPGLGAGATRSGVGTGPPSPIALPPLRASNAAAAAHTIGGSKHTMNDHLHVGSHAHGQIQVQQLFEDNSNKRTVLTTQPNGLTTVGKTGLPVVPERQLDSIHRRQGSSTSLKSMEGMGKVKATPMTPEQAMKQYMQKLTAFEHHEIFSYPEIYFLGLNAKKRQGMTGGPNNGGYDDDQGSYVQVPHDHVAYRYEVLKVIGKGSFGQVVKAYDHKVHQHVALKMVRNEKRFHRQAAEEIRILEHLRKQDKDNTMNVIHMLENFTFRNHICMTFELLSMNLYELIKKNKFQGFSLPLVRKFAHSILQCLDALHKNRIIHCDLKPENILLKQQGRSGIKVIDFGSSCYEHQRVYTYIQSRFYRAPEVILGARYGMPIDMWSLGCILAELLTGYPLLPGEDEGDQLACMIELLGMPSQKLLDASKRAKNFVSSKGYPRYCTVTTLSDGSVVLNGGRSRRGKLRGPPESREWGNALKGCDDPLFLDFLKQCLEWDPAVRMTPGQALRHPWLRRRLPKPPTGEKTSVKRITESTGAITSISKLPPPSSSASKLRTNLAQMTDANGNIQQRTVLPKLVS
T16 sequence (Q7L7X3 whole entry): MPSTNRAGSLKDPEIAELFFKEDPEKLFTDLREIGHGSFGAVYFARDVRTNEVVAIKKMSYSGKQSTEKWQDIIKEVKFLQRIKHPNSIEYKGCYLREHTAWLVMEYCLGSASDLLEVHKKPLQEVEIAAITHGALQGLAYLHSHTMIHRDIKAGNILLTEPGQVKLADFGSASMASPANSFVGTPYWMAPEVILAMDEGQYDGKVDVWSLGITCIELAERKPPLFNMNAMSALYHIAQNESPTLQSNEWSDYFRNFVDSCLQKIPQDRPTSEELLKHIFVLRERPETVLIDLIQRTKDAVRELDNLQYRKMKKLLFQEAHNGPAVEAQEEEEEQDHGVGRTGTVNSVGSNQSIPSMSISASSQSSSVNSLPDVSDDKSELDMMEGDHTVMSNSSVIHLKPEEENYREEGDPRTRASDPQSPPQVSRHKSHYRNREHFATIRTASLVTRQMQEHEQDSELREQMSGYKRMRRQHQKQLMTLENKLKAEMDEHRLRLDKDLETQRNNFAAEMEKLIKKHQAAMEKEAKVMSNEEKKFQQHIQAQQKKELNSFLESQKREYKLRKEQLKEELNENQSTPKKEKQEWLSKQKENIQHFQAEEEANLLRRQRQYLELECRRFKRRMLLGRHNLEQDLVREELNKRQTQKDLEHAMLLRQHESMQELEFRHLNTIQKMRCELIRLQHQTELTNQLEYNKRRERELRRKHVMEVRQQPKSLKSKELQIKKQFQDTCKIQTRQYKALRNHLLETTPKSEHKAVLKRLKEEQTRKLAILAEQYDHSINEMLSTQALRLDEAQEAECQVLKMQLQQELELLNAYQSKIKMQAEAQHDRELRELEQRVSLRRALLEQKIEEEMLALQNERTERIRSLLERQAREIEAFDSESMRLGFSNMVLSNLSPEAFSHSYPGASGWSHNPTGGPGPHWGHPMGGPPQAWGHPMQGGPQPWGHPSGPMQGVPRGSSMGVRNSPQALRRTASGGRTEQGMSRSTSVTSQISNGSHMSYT
T1 sequence (P49674 whole entry): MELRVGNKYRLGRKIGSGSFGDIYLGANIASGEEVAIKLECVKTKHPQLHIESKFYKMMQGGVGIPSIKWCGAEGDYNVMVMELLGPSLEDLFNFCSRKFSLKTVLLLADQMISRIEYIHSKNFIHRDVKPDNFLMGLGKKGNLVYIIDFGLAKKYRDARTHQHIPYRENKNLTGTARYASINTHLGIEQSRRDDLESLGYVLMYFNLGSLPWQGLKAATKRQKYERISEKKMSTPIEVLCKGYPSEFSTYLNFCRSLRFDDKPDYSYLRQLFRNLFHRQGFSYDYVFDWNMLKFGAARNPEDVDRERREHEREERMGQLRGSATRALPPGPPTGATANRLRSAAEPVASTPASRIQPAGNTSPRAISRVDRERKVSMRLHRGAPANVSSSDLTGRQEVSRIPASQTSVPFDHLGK
T10 sequence (Q9H2K8 whole entry): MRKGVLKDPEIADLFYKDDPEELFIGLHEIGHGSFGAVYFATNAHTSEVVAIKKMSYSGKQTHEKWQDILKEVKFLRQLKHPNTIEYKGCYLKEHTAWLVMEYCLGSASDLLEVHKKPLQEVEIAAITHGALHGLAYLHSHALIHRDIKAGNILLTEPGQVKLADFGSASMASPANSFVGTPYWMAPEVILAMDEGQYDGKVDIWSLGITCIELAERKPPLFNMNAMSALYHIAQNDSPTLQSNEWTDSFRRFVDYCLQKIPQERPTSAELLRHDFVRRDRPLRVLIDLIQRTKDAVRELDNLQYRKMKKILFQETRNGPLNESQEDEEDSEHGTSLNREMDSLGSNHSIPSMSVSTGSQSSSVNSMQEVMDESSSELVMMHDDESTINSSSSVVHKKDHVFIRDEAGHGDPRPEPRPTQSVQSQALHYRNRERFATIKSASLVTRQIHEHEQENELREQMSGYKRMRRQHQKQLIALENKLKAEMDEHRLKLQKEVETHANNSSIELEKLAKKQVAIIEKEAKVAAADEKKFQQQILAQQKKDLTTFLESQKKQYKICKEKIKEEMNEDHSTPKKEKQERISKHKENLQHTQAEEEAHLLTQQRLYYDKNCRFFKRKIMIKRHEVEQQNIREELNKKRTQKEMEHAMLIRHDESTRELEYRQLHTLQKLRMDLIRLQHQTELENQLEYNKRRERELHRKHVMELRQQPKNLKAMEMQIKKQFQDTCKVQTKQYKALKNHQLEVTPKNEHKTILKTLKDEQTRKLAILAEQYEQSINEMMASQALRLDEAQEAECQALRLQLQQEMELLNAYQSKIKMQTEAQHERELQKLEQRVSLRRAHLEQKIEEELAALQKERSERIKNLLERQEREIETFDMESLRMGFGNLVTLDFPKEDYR
T12 sequence (P49761 whole entry): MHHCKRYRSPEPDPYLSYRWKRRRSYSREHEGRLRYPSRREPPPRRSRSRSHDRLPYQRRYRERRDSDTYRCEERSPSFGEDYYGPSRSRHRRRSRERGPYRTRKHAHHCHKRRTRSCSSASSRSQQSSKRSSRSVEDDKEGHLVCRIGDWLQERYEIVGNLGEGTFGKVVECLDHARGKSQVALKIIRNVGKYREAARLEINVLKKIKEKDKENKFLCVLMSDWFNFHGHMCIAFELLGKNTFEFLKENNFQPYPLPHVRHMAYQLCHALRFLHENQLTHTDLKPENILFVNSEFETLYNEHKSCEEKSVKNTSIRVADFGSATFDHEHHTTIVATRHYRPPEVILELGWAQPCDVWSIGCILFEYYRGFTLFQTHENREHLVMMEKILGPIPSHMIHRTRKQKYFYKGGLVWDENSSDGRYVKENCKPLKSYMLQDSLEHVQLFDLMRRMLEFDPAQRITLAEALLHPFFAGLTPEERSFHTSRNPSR
T15 sequence (Q8TBX8 whole entry): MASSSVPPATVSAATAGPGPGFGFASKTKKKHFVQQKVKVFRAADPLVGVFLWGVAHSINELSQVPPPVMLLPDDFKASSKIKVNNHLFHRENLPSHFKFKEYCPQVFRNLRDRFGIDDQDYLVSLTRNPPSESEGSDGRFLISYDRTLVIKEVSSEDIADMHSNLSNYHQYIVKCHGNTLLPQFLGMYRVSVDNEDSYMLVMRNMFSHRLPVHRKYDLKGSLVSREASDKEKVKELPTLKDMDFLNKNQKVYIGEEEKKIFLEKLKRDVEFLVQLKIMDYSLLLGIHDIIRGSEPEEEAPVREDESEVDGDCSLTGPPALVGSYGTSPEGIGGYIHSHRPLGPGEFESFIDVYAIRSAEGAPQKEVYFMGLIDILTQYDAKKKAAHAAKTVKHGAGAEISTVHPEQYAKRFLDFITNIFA

In the case of `O=C(Nc1nc2ccc(C(F)(F)F)cc2[nH]1)c1csc(NC(=O)c2ccccc2OC(F)(F)F)n1` [Compound 5, 2-(2-(Trifluoromethoxy)benzamido)-N-(6-(trifluoromethyl)-1H-benzo[d]imidazol-2-yl)thiazole-4-carboxamide], the remaining binding at 10 µM is 0.35% at CSNK1E; 10% on FLT3(D835Y); 2.6% at CLK1; 6.6% on DYRK1B; 12% on SLK; 25% at FLT3(D835H). Also, the remaining binding at 10 µM came to 3% on CSNK1A1; 10% on CLK2; 7.2% on CLK4; 20% at TAOK3; 17% on DYRK2; 20% on CLK3. Moreover, the remaining binding at 10 µM at CSNK1G3 was found to be 31%; at DYRK1A, 4.1%; at PIP5K2C, 9.6%; on TAOK1 it was 24%; on CSNK1A1L it was 1%.
